What was measured:
[1] = target: NA-uptake (Rattus norvegicus, UniProt Q63380); experiment: biochemical; details: for inhibition at 10 µM: read-out: NA-uptake [10 μM], % inhibition
[2] = target: T1, 5HT-uptake (Rattus norvegicus, UniProt P31652); experiment: biochemical; details: for inhibition at 10 µM: read-out: 5HT-uptake [10 μM], % inhibition
T1 construct: synaptosomes were freshly isolated from areas of rats' brains
T1 sequence (P31652 whole entry): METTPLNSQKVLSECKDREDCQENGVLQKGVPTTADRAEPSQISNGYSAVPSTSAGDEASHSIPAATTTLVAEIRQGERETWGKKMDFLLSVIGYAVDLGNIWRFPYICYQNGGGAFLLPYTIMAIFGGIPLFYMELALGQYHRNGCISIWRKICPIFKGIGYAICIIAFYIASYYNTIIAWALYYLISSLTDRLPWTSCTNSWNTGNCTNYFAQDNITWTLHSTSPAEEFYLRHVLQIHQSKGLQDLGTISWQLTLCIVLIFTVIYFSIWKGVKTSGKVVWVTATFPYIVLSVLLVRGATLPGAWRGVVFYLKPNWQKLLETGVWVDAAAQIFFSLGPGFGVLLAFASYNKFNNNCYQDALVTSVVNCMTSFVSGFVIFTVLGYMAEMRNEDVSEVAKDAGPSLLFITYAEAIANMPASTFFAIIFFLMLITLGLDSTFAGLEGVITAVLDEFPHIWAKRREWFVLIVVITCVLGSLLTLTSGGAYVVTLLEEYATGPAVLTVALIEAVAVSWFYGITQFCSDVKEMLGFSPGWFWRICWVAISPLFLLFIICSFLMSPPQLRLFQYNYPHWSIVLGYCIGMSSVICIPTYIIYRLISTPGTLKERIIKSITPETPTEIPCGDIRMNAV

Chain of NA-uptake (Q63380 1-617): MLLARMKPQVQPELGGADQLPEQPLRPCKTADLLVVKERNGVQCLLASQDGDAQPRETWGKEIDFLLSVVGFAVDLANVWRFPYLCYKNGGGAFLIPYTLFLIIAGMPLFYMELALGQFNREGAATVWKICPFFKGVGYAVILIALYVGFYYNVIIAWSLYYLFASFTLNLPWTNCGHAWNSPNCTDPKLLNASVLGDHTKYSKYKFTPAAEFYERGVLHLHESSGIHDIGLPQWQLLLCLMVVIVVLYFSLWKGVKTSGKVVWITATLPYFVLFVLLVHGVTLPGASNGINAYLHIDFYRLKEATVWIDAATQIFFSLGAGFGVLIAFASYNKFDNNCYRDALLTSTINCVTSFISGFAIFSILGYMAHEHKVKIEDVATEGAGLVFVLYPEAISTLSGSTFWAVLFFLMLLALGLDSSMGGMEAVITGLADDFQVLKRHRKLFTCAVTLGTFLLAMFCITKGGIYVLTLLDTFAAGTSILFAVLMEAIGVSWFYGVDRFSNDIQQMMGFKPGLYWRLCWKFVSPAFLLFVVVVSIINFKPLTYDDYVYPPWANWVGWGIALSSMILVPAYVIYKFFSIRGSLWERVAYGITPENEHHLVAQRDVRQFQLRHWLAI

| Structure (SMILES) | inhibition at 10 µM [1] [%] | inhibition at 10 µM [2] [%] | NA-uptake [10 μM], % inhibition [1] [%] | 5HT-uptake [10 μM], % inhibition [2] [%] |
| --- | --- | --- | --- | --- |
| CN(CC(=O)OC(C)(C)C)C(=O)CCCC(=O)NC1CCC(Cc2ccccc2)(N(C)C)CC1 (centres unmarked) [Example 24, {[4-(4-benzyl-4-dimethylamino-cyclohexylcarbamoyl)-butyryl]-methyl-amino}-acetic acid tert butyl ester] | 91 | 92 |  |  |
| COc1ccc(F)c(CN2CCN(C(=O)CCCC(=O)NC3CCC(Cc4ccccc4)(N(C)C)CC3)CC2)c1 (centres unmarked) [Example 25, 5-[4-(2-fluoro-5-methoxy-benzyl)-piperazin-1-yl]-5-oxo-valeric acid (4-benzyl-4-dimethylamino-cyclohexyl)-amide] | 95 | 97 |  |  |
| COCCCNC(=O)CCC(=O)NC1CCC(Cc2ccc(Cl)cc2)(N(C)C)CC1 (centres unmarked) [Example 26, N-[4-(4-chloro-benzyl)-4-dimethylamino-cyclohexyl]-N′-(3-methoxy-propyl)-succinamide] | 79 | 93 |  |  |
| CC(=O)c1ccc(N2CCN(C(=O)CCC(=O)NC3CCC(Cc4ccc(C)cc4)(N(C)C)CC3)CC2)cc1 (centres unmarked) [Example 27, 4-[4-(4-Acetyl-phenyl)-piperazin-1-yl]-N-[4-dimethylamino-4-(4-methyl-benzyl)-cyclohexyl]-4-oxo-butyramide] | 92 | 95 |  |  |
| Cc1ccc(CC2(N(C)C)CCC(NC(=O)CCC(=O)N3CCN(C(=O)OC(C)(C)C)CC3)CC2)cc1 (centres unmarked) [Example 28, 4-{3-[4-dimethylamino-4-(4-methyl-benzyl)-cyclohexylcarbamoyl]-propionyl}-piperazin-1-carboxylic acid-tert-butylester] | 81 | 92 |  |  |
| CN(C)C1(Cc2cccc(Cl)c2)CCC(NC(=O)CCC(=O)NCC2CCCO2)CC1 (centres unmarked) [Example 29, N-[4-(3-chloro-benzyl)-4-dimethylamino-cyclohexyl]-N′-(tetrahydro-furan-2-ylmethyl)-succinamide] | 91 | 94 |  |  |
| CCOC(=O)C(C)NC(=O)CCC(=O)NC1CCC(Cc2cccc(Cl)c2)(N(C)C)CC1 (centres unmarked) [Example 30, 2-{3-[4-(3-chloro-benzyl)-4-dimethylamino-cyclohexylcarbamoyl]-propionylamino}-propanoic acid ethylester] | 96 | 93 |  |  |
| COC(=O)C(Cc1ccc(Cl)cc1)NC(=O)CCC(=O)NC1CCC(Cc2ccc(C)cc2)(N(C)C)CC1 (centres unmarked) [Example 32, 3-(4-chloro-phenyl)-2-{3-[4-dimethylamino-4-(4-methyl-benzyl)-cyclohexylcarbamoyl]-propionylamino}-propanoic acid methylester] | 97 | 99 |  |  |
| Cc1cnc(C(=O)N2CCN(C(=O)CCC(=O)NC3CCC(Cc4cccc(Cl)c4)(N(C)C)CC3)CC2)cn1 (centres unmarked) [Example 33, N-[4-(3-chloro-benzyl)-4-dimethylamino-cyclohexyl]-4-[4-(5-methyl-pyrazin-2-carbonyl)-piperazin-1-yl]-4-oxo-butyramide] | 99 | 95 |  |  |
| CN(C)C1(Cc2ccc(Cl)cc2)CCC(NC(=O)CCC(=O)NCc2cccc3ccccc23)CC1 (centres unmarked) [Example 34, N-[4-(4-chloro-benzyl)-4-dimethylamino-cyclohexyl]-N′-naphthalen-1-ylmethyl-succinamide] | 87 | 97 |  |  |
| COc1ccc(CN2CCN(C(=O)CCC(=O)NC3CCC(Cc4cccc(C)c4)(N(C)C)CC3)CC2)cc1F (centres unmarked) [Example 35, N-[4-dimethylamino-4-(3-methyl-benzyl)-cyclohexyl]-4-[4-(3-fluoro-4-methoxy-benzyl)-piperazin-1-yl]-4-oxo-butyramide] | 95 | 94 |  |  |
| Cc1ccc(CC2(N(C)C)CCC(NC(=O)CCC(=O)N(C)CCc3c[nH]c4ccccc34)CC2)cc1 (centres unmarked) [Example 36, N-[4-dimethylamino-4-(4-methyl-benzyl)-cyclohexyl]-N′-[2-(1H-indol-3-yl)-ethyl]-N′-methyl-succinamide] | 93 | 96 |  |  |
| CCOP(=O)(Cc1ccc(NC(=O)CCC(=O)NC2CCC(Cc3cccc(Cl)c3)(N(C)C)CC2)cc1)OCC (centres unmarked) [Example 37, (4-{3-[4-(3-chloro-benzyl)-4-dimethylamino-cyclohexylcarbamoyl]-propionylamino}-benzyl)-phosphonic acid diethylester] | 100 | 95 |  |  |
| Cc1ccc(CC2(N(C)C)CCC(NC(=O)CCC(=O)N(C)CCc3ccccn3)CC2)cc1 (centres unmarked) [Example 38, N-[4-dimethylamino-4-(4-methyl-benzyl)-cyclohexyl]-N′-methyl-N′-(2-pyridin-2-yl-ethyl)-succinamide] | 79 | 95 |  |  |
| CN(C)C1(Cc2cccc(Cl)c2)CCC(NC(=O)CCC(=O)N2CC=CCC2)CC1 (centres unmarked) [Example 39, N-[4-(3-chloro-benzyl)-4-dimethylamino-cyclohexyl]-4-(3,6-dihydro-2H-pyridin-1-yl)-4-oxo-butyramide] | 90 | 94 |  |  |
| Cc1cnc(C(=O)N2CCN(C(=O)CCCC(=O)NC3CCC(Cc4ccccc4)(N(C)C)CC3)CC2)cn1 (centres unmarked) [Example 41, 5-[4-(5-methyl-pyrazin-2-carbonyl)-piperazin-1-yl]-5-oxo-valeric acid (4-benzyl-4-dimethylamino-cyclohexyl)-amide] | 90 | 92 |  |  |

| Structure (SMILES) | inhibition at 10 µM [1] [%] | inhibition at 10 µM [2] [%] | NA-uptake [10 μM], % inhibition [1] [%] | 5HT-uptake [10 μM], % inhibition [2] [%] |
| --- | --- | --- | --- | --- |
| C=CCN(C)C(=O)CCC(=O)NC1CCC(Cc2cccc(Cl)c2)(N(C)C)CC1 (centres unmarked) [Example 43, N-allyl-N′-[4-(3-chloro-benzyl)-4-dimethylamino-cyclohexyl]-N-methyl-succinamide] | 96 | 98 |  |  |
| CN(C)C1(Cc2ccc(Cl)cc2)CCC(NC(=O)CCC(=O)NC2CCCC2)CC1 (centres unmarked) [Example 44, N-[4-(4-chloro-benzyl)-4-dimethylamino-cyclohexyl]-Nt-cyclopentyl-succinamide] |  |  | 84 | 94 |
| Cc1ccc(CC2(N(C)C)CCC(NC(=O)CCC(=O)NCC3CCCO3)CC2)cc1 (centres unmarked) [Example 45, N-[4-dimethylamino-4-(4-methyl-benzyl)-cyclohexyl]-N′-(tetrahydro-furan-2-ylmethyl)-succinamide] | 77 | 92 |  |  |
| CCOP(=O)(Cc1ccc(NC(=O)CCC(=O)NC2CCC(Cc3cccc(C)c3)(N(C)C)CC2)cc1)OCC (centres unmarked) [Example 46, (4-{3-[4-dimethylamino-4-(3-methyl-benzyl)-cyclohexylcarbamoyl]-propionylamino}-benzyl)-phosphonic acid diethylester] | 89 | 92 |  |  |
| COc1ccccc1N1CCN(C(=O)CCC(=O)NC2CCC(Cc3ccc(Cl)cc3)(N(C)C)CC2)CC1 (centres unmarked) [Example 47, N-[4-(4-chloro-benzyl)-4-dimethylamino-cyclohexyl]-4-[4-(2-methoxy-phenyl)-piperazin-1-yl]-4-oxo-butyramide] | 73 | 93 |  |  |
| COc1cccc(N2CCN(C(=O)CCC(=O)NC3CCC(Cc4cccc(C)c4)(N(C)C)CC3)CC2)c1 (centres unmarked) [Example 48, N-[4-dimethylamino-4-(3-methyl-benzyl)-cyclohexyl]-4-[4-(3-methoxy-phenyl)-piperazin-1-yl]-4-oxo-butyramide] | 97 | 94 |  |  |
| CN(C)C1(Cc2ccc(Cl)cc2)CCC(NC(=O)CCC(=O)NCc2cc(F)cc(F)c2)CC1 (centres unmarked) [Example 49, N-[4-(4-chloro-benzyl)-4-dimethylamino-cyclohexyl]-N′-(3,5-difluoro-benzyl)-succinamide] | 98 | 92 |  |  |
| Cc1ccccc1CNC(=O)CCC(=O)NC1CCC(Cc2ccc(Cl)cc2)(N(C)C)CC1 (centres unmarked) [Example 50, N-[4-(4-chloro-benzyl)-4-dimethylamino-cyclohexyl]-N′-(2-methyl-benzyl)-succinamide] | 89 | 92 |  |  |
| Cc1ccc(CC2(N(C)C)CCC(NC(=O)CCC(=O)N3CCC(CNC(=O)C(F)(F)F)CC3)CC2)cc1 (centres unmarked) [Example 51, N-[4-dimethylamino-4-(4-methyl-benzyl)-cyclohexyl]-4-oxo-4-{4-[(2,2,2-trifluoro-acetylamino)-methyl]-piperidin-1-yl}-butyramide] | 77 | 92 |  |  |
| CN(C)C1(Cc2ccc(Cl)cc2)CCC(NC(=O)CCC(=O)NCCc2c[nH]c3ccccc23)CC1 (centres unmarked) [Example 52, N-[4-(4-chloro-benzyl)-4-dimethylamino-cyclohexyl]-N′-[2-(1H-indol-3-yl)-ethyl]-succinamide] | 88 | 96 |  |  |
| CN(CCc1c[nH]c2ccccc12)C(=O)CCC(=O)NC1CCC(Cc2cccc(Cl)c2)(N(C)C)CC1 (centres unmarked) [Example 53, N-[4-(3-chloro-benzyl)-4-dimethylamino-cyclohexyl]-N′-[2-(1H-indol-3-yl)-ethyl]-N′-methyl-succinamide] | 94 | 93 |  |  |
| COc1cc(CN2CCN(C(=O)CCCC(=O)NC3CCC(Cc4ccccc4)(N(C)C)CC3)CC2)cc2c1OCO2 (centres unmarked) [Example 54] |  |  | 90 | 95 |
| Cc1cccc(N2CCN(C(=O)CCCC(=O)NC3CCC(Cc4ccccc4)(N(C)C)CC3)CC2)c1C (centres unmarked) [Example 56, 5-[4-(2,3-dimethyl-phenyl)-piperazin-1-yl]-5-oxo-valeric acid (4-benzyl-4-dimethylamino-cyclohexyl)-amide] | 96 | 95 |  |  |
| CN(CCc1c[nH]c2ccccc12)C(=O)CCC(=O)NC1CCC(Cc2ccc(Cl)cc2)(N(C)C)CC1 (centres unmarked) [Example 57, N-[4-(4-chloro-benzyl)-4-dimethylamino-cyclohexyl]-N′-[2-(1H-indol-3-yl)-ethyl]-N′-methyl-succinamide] | 100 | 93 |  |  |
| Cc1ccc(CC2(N(C)C)CCC(NC(=O)CCC(=O)N3CCN(c4cccc(C)c4C)CC3)CC2)cc1 (centres unmarked) [Example 58, N-[4-dimethylamino-4-(4-methyl-benzyl)-cyclohexyl]-4-[4-(2,3-dimethyl-phenyl)-piperazin-1-yl]-4-oxo-butyramide] | 79 | 93 |  |  |

Source: patent US8088763B2 (priority 2004, dated 2012)
